From EP0629585A1, “Process of inhibition oxalate scale formation” (MONSANTO EUROPE S.A., priority 1993, dated 1994)
Counter-ions that a name gives are not always drawn.

Test: Calcium oxalate scale inhibition test under conditions similar to an alkaline pulp bleaching process
Settings: dosage 25 ppm active acid, 45°C, pH 9.5, 100 ppm calcium, 80 ppm oxalates
Method: The preferred oxalate scale inhibiting compound of the invention, i.e. the compound of formula I above, was tested alongside various members of the known "DEQUEST" family of phosphonate inhibitors under conditions similar to those encountered in an alkaline pulp bleaching process. The word "DEQUEST" is a Registered Trade Mark.
The temperature of the aqueous solution used in the tests was maintained at 45°C and the pH at 9.5 (adjusted using an ammonium hydroxide/ammonium chloride buffering agent). Tests times of 2.5, 8 and 24 hours were deployed, and concentrations of 100 ppm of calcium and 80 ppm of oxalates were present in the aqueous solution. A dosage rate of inhibitor of 25 ppm was used in each test. The "DEQUEST" scale inhibitors used in the tests were designated A to E and were as follows: • A - DEQUEST 2066 (diethylenetriaminepenta(methylenephosphonic acid) or its salts) • B - DEQUEST 2046 (ethylenediaminetetra(methylenephosphonic acid) or its salts) • C - DEQUEST 2000 (aminotri(methylenephosphonic acid) or its salts) • D - DEQUEST 2010 (1-hydroxyethylene(1,1 diphosphonic acid)) • E - DEQUEST 2056 (hexamethylenediaminetetra(methylenephosphonic acid) or its salts). TABLE
The results above express the scale-inhibiting effects of the various inhibitors in terms of percentage inhibition.

Row | Compound | Percentage Inhibition (time 2.5 hrs) | Percentage Inhibition (time 8 hrs) | Percentage Inhibition (time 24 hrs)
1 | O=P(O)(O)CN(CCCN(CP(=O)(O)O)CP(=O)(O)O)CCN(CCCN(CP(=O)(O)O)CP(=O)(O)O)CP(=O)(O)O [(I)] | 100 | 92 | 49
2 | O=P(O)(O)CN(CP(=O)(O)O)CP(=O)(O)O [C, aminotri(methylenephosphonic acid) or its salts] | 51 | – | –
3 | CC(O)(P(=O)(O)O)P(=O)(O)O [D, 1-hydroxyethylene(1,1 diphosphonic acid)] | 49 | – | –
4 | diethylenetriaminepenta(methylenephosphonic acid) or its salts | 64 | 38 | 24
5 | ethylenediaminetetra(methylenephosphonic acid) or its salts [B] | 50 | 23 | 14
6 | hexamethylenediaminetetra(methylenephosphonic acid) or its salts | 34 | – | –
